Read-outs that look alike come from different tables or passages of the source.
Columns and labels:
[1] = system: C. lagenarium; experiment: Spore germination assay, fungicidal activity against C. lagenarium; type: cell-based, Colletotrichum lagenarium
Description: (§1) The fungal pathogens C. lagenarium and B. cinerea was provided by the Agricultural Culture Collection of China (Yangling, Shaanxi, China). C. lagenarium was cultured for 2 weeks at 25 ± 1 °C on potato dextrose agar (PDA) while B. cinerea was cultured at 20 °C on the same medium after being retrieved from the storage tube. Plates were flooded with sterile distilled water, and then conidia were scraped with a glass rod. Mycelial debris was removed by filtration. The spores were harvested and suspended in sterile distilled water containing 0.1% (v/v) Tween 20. The concentration of the spore suspension was adjusted to 1.0 × 10^6 spores/mL with sterilized distilled water following.
(§2) The tested samples (10.0 mg) dissolved in acetone (0.1 mL) were diluted with sterile distilled water to prepare 10.0 mL stock solution, which was further diluted to prepare test solutions in which the final concentration of acetone was <1% (v/v). A series of concentrations of tested samples and one control (1% acetone with sterile distilled water) were separately tested for spore germination of C. lagenarium or B. cinerea. The samples were inoculated with spore suspension of C. lagenarium or B. cinerea containing 1.0 × 10^6 spores/mL. Aliquots of 10 μL of prepared spore suspension were placed on separate glass slides in triplicate. Slides containing the spores were incubated in a moisture chamber at 25 °C for 6~8 h. Each slide was then observed under the microscope for spore germination. Spores were considered to have germinated if the length of the germ tube was at least half the length of the spore. Afterward, spore germination was stopped by applying a drop of lactophenol-cotton blue to the inoculation sites on plates. The numbers of generated spores were counted under a microscope (Olympus BX61, Tokyo, Japan), and the percentage of germinated spores was calculated. Chlorothalonil was used as the positive control.

[2] = system: B. cinerea; experiment: Spore germination assay, fungicidal activity against B. cinerea; type: cell-based, Botrytis cinerea; conditions: in vitro, n = 3
Description: as §1, §2

[3] = Colletotrichum orbiculare, Table 1, from IC50 in μM, read-out: pIC50, C. lagenarium (converted)
[4] = Colletotrichum orbiculare, Table 2, fungicidal activity against C. lagenarium used for QSAR, read-out: pIC50 (converted)
[5] = Colletotrichum orbiculare, Table 4, experimental, C. lagenarium, read-out: Exp. pIC50 (converted)
[6] = Colletotrichum orbiculare, in vitro, spore germination, n = 3, read-out: IC50, C. lagenarium

Molecule	IC50 [1, 3] [µM]	IC50 [1, 4] [µM]	IC50 [1, 5] [µM]	IC50 [1, 6] [µM]	IC50 ([2]; Botrytis cinerea) [µM]	melting point [°C]	pIC50, C. lagenarium ([1]; Table 1, from IC50 in μM)	pIC50 ([1]; Table 2, fungicidal activity against C. lagenarium used for QSAR)	Exp. pIC50 ([1]; Table 4, experimental, C. lagenarium)	IC50 ([1]; in vitro, spore germination, n = 3, read-out: IC50, C. lagenarium) [µM]	IC50 [2] [µM]
C=C1CC(c2cccc(OC(=O)CC)c2)OC1=O (stereo not shown) [Compound 6m, 4-(3-Propionyloxyphenyl)-2-methylenebutyrolactone]	173	173	173	173	203	–	–	–	–	–	–
C=C1CC(c2ccc(OC(=O)c3ccccc3Br)cc2)OC1=O (stereo not shown) [Compound 4d, 4-[4-(2-Bromobenzoyloxy)phenyl]-2-methylenebutyrolactone]	15.6	15.6	15.6	15.6	24.1	174.5 to 174.9	–	–	–	–	–
4-[2-(Cinnamoyloxy)phenyl]-2-methylenebutyrolactone [Compound 5n]	–	–	–	–	–	–	−1.012	−1.0120	−1.0120	10.3	20.6
C=C1CC(c2ccc(OC(=O)c3ccc(Cl)cc3)cc2)OC1=O (stereo not shown) [Compound 4c, 4-[4-(4-Chlorobenzoyloxy)phenyl]-2-methylenebutyrolactone]	12.7	12.7	12.7	12.7	27.3	171.3 to 171.6	–	–	–	–	–
C=C1CC(c2ccccc2OC(=O)c2ccc(Cl)cc2)OC1=O (stereo not shown) [Compound 5b, 4-[2-(4-Chlorobenzoyloxy)phenyl]-2-methylenebutyrolactone]	17.7	17.7	17.7	17.7	34.5	208.7 to 209.3	–	–	–	–	–
C=C1CC(c2ccc(OC(=O)c3ccccc3C)cc2)OC1=O (stereo not shown) [Compound 4j, 4-[4-(2-Methylbenzoyloxy)phenyl]-2-methylenebutyrolactone]	192	192	192	192	199	189.6 to 190.1	–	–	–	–	–
C=C1CC(c2ccccc2OC(=O)c2ccccc2Br)OC1=O (stereo not shown) [Compound 5c, 4-[2-(2-Bromobenzoyloxy)phenyl]-2-methylenebutyrolactone]	15.9	15.9	15.9	15.9	34.6	204.6 to 205.1	–	–	–	–	–
C=C1CC(c2ccccc2OC(=O)c2ccc(C)cc2)OC1=O (stereo not shown) [Compound 5j, 4-[2-(4-Methylbenzoyloxy)phenyl]-2-methylenebutyrolactone]	207	207	207	208	259	181.2 to 181.6	–	–	–	–	–
C=C1CC(c2ccc(OC(=O)c3ccccc3Cl)cc2)OC1=O (stereo not shown) [Compound 4a, 4-[4-(2-Chlorobenzoyloxy)phenyl]-2-methylenebutyrolactone]	14	14	14	14	29.8	187.2 to 187.9	–	–	–	–	–
C=C1CC(c2ccc(OC(=O)c3ccc(C)cc3)cc2)OC1=O (stereo not shown) [Compound 4l, 4-[4-(4-Methylbenzoyloxy)phenyl]-2-methylenebutyrolactone]	189	189	189	189	209	184.5 to 185.1	–	–	–	–	–
C=C1CC(c2cccc(OC(=O)c3ccccc3OC)c2)OC1=O (stereo not shown) [Compound 6j, 4-[3-(2-Methoxylbenzoyloxy)phenyl]-2-methylenebutyrolactone]	162	162	162	162	196	172.3 to 172.8	–	–	–	–	–
C=C1CC(c2cccc(OC(=O)c3ccc(Cl)cc3)c2)OC1=O (stereo not shown) [Compound 6b, 4-[3-(4-Chlorobenzoyloxy)phenyl]-2-methylenebutyrolactone]	9.25	9.25	9.25	9.24	29.1	209.8 to 210.5	–	–	–	–	–
C=C1CC(c2ccc(OC(=O)c3cccc(OC)c3)cc2)OC1=O (stereo not shown) [Compound 4n, 4-[4-(3-Methoxylbenzoyloxy)phenyl]-2-methylenebutyrolactone]	212	212	212	212	224	185.7 to 186.2	–	–	–	–	–
C=C1CC(c2ccccc2OC(=O)c2ccc(C#N)cc2)OC1=O (stereo not shown) [Compound 5f]	79.1	79.1	79.1	79.1	95	–	–	–	–	–	–
C=C1CC(c2cccc(OCCC)c2)OC1=O (stereo not shown) [Compound 6p, 4-(3-Propoxylphenyl)-2-methylenebutyrolactone]	266	266	266	266	298	–	–	–	–	–	–
C=C1CC(c2ccc(OC(=O)c3ccccc3OC)cc2)OC1=O (stereo not shown) [Compound 4m, 4-[4-(2-Methoxylbenzoyloxy)phenyl]-2-methylenebutyrolactone]	239	239	239	239	243	179.8 to 180.4	–	–	–	–	–
N#Cc1c(Cl)c(Cl)c(Cl)c(C#N)c1Cl [Chlorothalonil, reference compound]	4.21	–	–	4.21	8.31	–	–	–	–	–	–
C=C1CC(c2cccc(OC(=O)c3cccc(OC)c3)c2)OC1=O (stereo not shown) [Compound 6k, 4-[3-(3-Methoxybenzoyloxy)phenyl]-2-methylenebutyrolactone]	136	136	136	136	161	183.7 to 184.2	–	–	–	–	–
C=C1CC(c2ccc(OC(=O)C=Cc3ccccc3)cc2)OC1=O (stereo not shown) [Compound 4r, 4-[4-(Cinnamoyloxy)phenyl]-2-methylenebutyrolactone]	44.5	44.5	44.5	44.5	56.3	–	–	–	–	–	–
C=C1CC(c2ccccc2O)OC1=O (stereo not shown) [Compound 5, 4-(2-Hydroxyphenyl)-2-methylenebutyrolactone]	239	–	–	239	280	–	–	–	–	–	–
C=C1CC(c2ccccc2OCCCC)OC1=O (stereo not shown) [Compound 5o, 4-(2-Butoxyphenyl)-2-methylenebutyrolactone]	414	414	414	414	457	–	–	–	–	–	–
C=C1CC(c2ccccc2OC(C)C)OC1=O (stereo not shown) [Compound 5q, 4-(2-Isopropoxylphenyl)-2-methylenebutyrolactone]	429	429	429	429	446	–	–	–	–	–	–
C=C1CC(c2ccc(OC(=O)c3ccc(C#N)cc3)cc2)OC1=O (stereo not shown) [Compound 4h]	65.6	65.6	65.6	65.6	77	–	–	–	–	–	–
